Measurements published in patent US7135472B2, “3-Heterocyclic benzylamide derivatives as potassium channel openers” (Bristol-Myers Squibb Company, priority 2002, dated 2006).

Tests used:
[1] = molecular target: T1, mKCNQ2 channels (Mus musculus, UniProt Q9Z351); test: KCNQ whole-cell patch-clamp recordings, HEK 293 stable cell line expressing mKCNQ2 channels; format: cell-based; conditions: mKCNQ2 currents, HEK 293, whole-cell patch clamp; for Imax (%): Hill fit maximum current; for EC50: at −40 mV
T1 construct: expressed in transfected cells
Method: Whole-cell patch-clamp recordings were made from an HEK 293 stable cell line expressing mKCNQ2 channels, maintained in culture for 1–2 days. Patch pipettes had initial resistances of 2.5–4 MΩ. Currents were recorded with an EPC-9 amplifier (HEKA, Lambrecht, Germany) controlled with software (Pulse, HEKA) run on a standard lab PC. Series resistance compensation was used during current recording, and set at 80%. The series resistance (R) and cell capacitance (C) were determined electronically by subtracting the capacitive currents at the onset and offset of a 5 mV voltage step. The cancellation of whole-cell capacitive transients was virtually complete in all cells. Analog current signals were low-pass filtered at 2.9 kHz using a four-pole Bessel filter −3 dB) and stored on a local network server computer at a sampling rate of […]. All recordings were performed at room temperature (20–22° C.). The pipette solution contained (mM): KCl, 150; CaCl2, 2.5; EGTA, 5; MgCl2, 1; HEPES, 10; pH to 7.3 with KOH, and Osmolality of 290–300 mOsm. The extracellular solution contained (mM): NaCl, 140; KCl, 2.5; CaCl2, 2.5; MgCl2, 1; glucose, 10; HEPES, 10; pH to 7.3 with NaOH, and Osmolality of 305–310 mOsm
Concentration response data were generated by measuring the difference in the steady-state amplitude of current in the presence of compound at the end of a 600 ms voltage-clamp step from a holding potential of −80 mV. The concentration-response data were fitted with Hill-type equations: I=Imax/(1+EC50/[A]^nH), where I is the steady-state current at a given concentration of agonist [A]; and Imax, EC50 and nH are parameters estimated from the curve fit. In some cases the concentration-response data were fitted with equations consisting of the sum of two Hill-type components. Current-voltage (I/V) relationships for agonist-evoked currents were obtained by performing 600 ms voltage steps (−110 mV to +40 mV) in the absence and presence of agonist.

[2] = system: peripheral mononeuropathy nerve injury-induced tactile allodynia; test: Chung model of neuropathic pain (Chung surgery and von Frey test); format: in vivo, male Sprague Dawley rats; conditions: i.v., rat, von Frey thresholds over 90 min post-drug, % MPE (Drug AUC) − % MPE (Vehicle AUC)
Method: To test agents for activity against peripheral mononeuropathy nerve injury-induced tactile allodynia, male Sprague Dawley rats (wt. 120–160 g) were surgically prepared with unilateral tight ligation of spinal nerves L5 and L6 following the method of Kim and Chung (Kim S. H., Chung J. M. (1992) Pain, September; 50(3):355–63). After 3–4 weeks recovery, paw withdrawal to light touch was assessed as described by Chaplan et al. (Chaplan S. R., et al., (1994) J. Neurosci Methods, July; 53(1):55–63). In brief, rats are placed in a plastic cage with a wire mesh bottom and allowed to acclimate for 15–30 minutes, until cage exploration and grooming stops. […] After acclimation, baseline von Frey thresholds were assessed for the injured hindpaw at −15 min. […] Following drug administration, von Frey thresholds are measured at 15, 30, 60 and 90 min. Data were analyzed by a 2-way repeated measures analysis of variance followed by Dunnett's test (p<0.05). […]
Reversal of neuropathic pain behavior may be expressed as a percentage (0–100%) of the maximum possible effect, over and above the vehicle effects. […]
For example, a compound which immediately reversed neuropathic pain behavior to normal levels, such that animals only responded to the highest von Frey filament (15 g), and maintained normal levels through out the post-drug testing period (90 min) would be calculated as Δ%MPE=100%.

Row | Compound | Imax (%) [1] | EC50 [1] | AUC (Δ % MPE) ([2]; 3 mg/kg) | AUC (Δ % MPE) ([2]; 100 mg/kg)
1 | C[C@H](NC(=O)/C=C/c1ccccc1F)c1cccc(-n2cccn2)c1 [Example 4, (S)-3-(2-Fluoro-phenyl)-N-[1-(3-pyrazol-1-yl-phenyl)-ethyl]-acrylamide] | 1158% | 0.123 µM | 24 (3 mg/kg, i.v.) Δ % MPE | –
2 | C[C@H](NC(=O)CCCc1ccccc1)c1cccc(-c2cccnc2)c1 [Example 17, (S)-4-Phenyl-N-[1-(3-pyridin-3-yl-phenyl)-ethyl]-butyramide] | 172% | 0.0007 µM | – | –
3 | C[C@H](NC(=O)C=Cc1ccccc1)c1cccc(-n2cccn2)c1 [Example 31, (S)-3-Phenyl-N-[1-(3-pyrazol-1-yl-phenyl)-ethyl]-acrylamide] | 3364% | 1.24 µM | – | –
4 | NCC1(CC(=O)O)CCCCC1 [Gabapentin, gabapentin, reference compound] | – | – | – | 50 (100 mg/kg, i.v.) Δ % MPE
